{"source": "patent US12427122B2", "about": "“Method of making transdermal amphetamine composition with low levels of carbamate” (Noven Pharmaceuticals, Inc., priority 2021, dated 2025)", "assay": "Stability of the amphetacarbamate moiety in solution", "assay_type": "physicochemical", "from_the_text": "As noted above, the existence or identity of amphetamine carbamate or amphetacarbamate per se were not known. Rather, amphetamine carbamate was identified and characterized by analyzing crystals isolated from drug-containing polymer matrices of transdermal amphetamine compositions, and amphetacarbamate was identified the work done to identify and characterize amphetamine carbamate. In addition to the inventions described herein pertaining to transdermal amphetamine compositions and amphetamine transdermal delivery systems, methods for detecting and quantifying amphetamine carbamate had to be developed. […] Thus, for example, typical HPLC assays could not be used.", "data": [{"substance": "(S)-1-phenylpropan-2-ammonium-(S)-(1-phenylpropan-2-yl)carbamate [amphetamine carbamate]", "values": [{"measurement": "stability of amphetacarbamate moiety", "result": "labile and readily converts to amphetamine"}]}]}
